Converted amounts (≈) assume the structure as drawn. Read-outs that look alike come from different tables or passages of the source.
B1: rSttH: recombinant lactam ring-opening enzyme from Streptomyces albulus NBRC14147, N-terminal 6× His Tag fused protein (protein)
chain: VTAMPPETAAPPETAAPARPLRPVQALLVVDVQTAFVSGAEAVPEAARVLDRTRGLLARARTAGALVVHLQNDGAPGAVDAPHTPGWELHLPVEPGPREHVVRKTEDDGFADTGLGALLDAAGVTELAVCGVLSEMCVAATARTALELGHRVVLPHDAHATYDIPAAPDISDTVPAAMSSRAAEWALGDEVEIVPRAAAVPFVAPPLAPAPEAPAAAAAPAAGTGLSPAGPPPAPAR
modifications: N-terminal 6xHis tag; streptomyces albulus
notes: recombinant lactam ring-opening enzyme from Streptomyces albulus NBRC14147, N-terminal 6× His Tag fused protein

Tests used:
[1] = test system: B. subtilis NBRC13169; assay: MIC test of STs and ST-acids; assay type: cell-based, Bacillus subtilis; conditions: Heart Infusion Broth; 1 day at 37° C.
[2] = test system: S. pombe L972; assay: MIC test of STs and ST-acids; assay type: cell-based, Schizosaccharomyces pombe; conditions: YPD medium; 2 days at 30° C.
[3] = test system: S. aureus FIR1169; assay type: cell-based, Staphylococcus aureus
[4] = test system: S. cerevisiae S288C; assay: MIC test of STs and ST-acids; assay type: cell-based, Saccharomyces cerevisiae; conditions: YPD medium; 2 days at 30° C.
[5] = test system: S. aureus AB; assay type: cell-based, Staphylococcus aureus
[6] = test system: E. coli W3110; assay: MIC test of STs and ST-acids; assay type: cell-based, Escherichia coli; conditions: Heart Infusion Broth; 1 day at 37° C.
[7] = test system: E. coli XL1-Blue MRF'; assay: MIC of ST-F and ST-D in E. coli XL1-Blue MRF' overexpressing sttH or nat gene; assay type: cell-based, Escherichia coli; conditions: LB medium, 1 day at 37° C.
Method: Restriction enzyme sites (GGATCC or AAGCTT, underlined) and a stop codon (TCA, underlined) were inserted into these primers. An expression vector (pQE30-nat) having incorporated therein an amplified fragment including these primers was constructed using pQE30. The MIC of ST-F and ST-D in an E. coli XL1-Blue MRF′ strain carrying pQE30-nat and pQE30-SHF6R were determined on LB agar flat plates containing ampicillin (100 μg/mL), 0.1 mM IPTG and STs (0 to 4 mM). S. cerevisiae CKY8 strain overexpressing the nat gene and the sttH gene was also prepared as follows. The following two sets of primers having restriction enzyme sites (AAGCTT or CTGCAG, underlined) and stop codons (TCA, underlined) added thereto were designed and used in PCR:
(§1) Although it was previously reported that the biological activity of chemically synthesized ST-F-acid is negligible in microorganisms and plants, that of ST-D-acid remains unclear. Therefore, we determined the respective MICs of ST-F and ST-D in E. coli and Saccharomyces cerevisiae overexpressing the sttH gene or nat gene (Table 3). […] To confirm this, the selective toxicity of ST-acids and STs against various microorganisms including gram-positive and -negative bacteria, clinically isolated pathogenic bacteria and yeasts was investigated. […] A “c/a” in parentheses in the table represents the ratio of the minimum inhibitory concentrations of ST-F-acid and ST-F, while “d/b” represents the ratio of the minimum inhibitory concentrations of ST-D-acid and ST-D.

[8] = test system: T1, rSttH; assay: rSttH reaction rate test (kinetic analysis, HPLC, Lineweaver-Burk); assay type: biochemical, Streptomyces albulus NBRC14147; conditions: substrate of rSttH; 30° C., 100 mM NaPB (pH 6.5); average ± s.d. of three tests
T1 construct: purified rSttH from E. coli M15 (pREP4) carrying pQE30-SHF6R; 6xHis (N); made in house; host or cells: E. coli M15 (pREP4) carrying pQE30-SHF6R
Method: (§2) In accordance with the manufacturer's (Qiagen) protocols, a reaction mixture (500 μL) was prepared using 100 mM sodium phosphate buffer (pH 6.5), 1 mg/mL ST-F or ST-D, and 100 μg/mL of purified rSttH from E. coli M15 (pREP4) carrying pQE30-SHF6R. The reaction mixture was reacted for 1 hour at 30° C. with or without rSttH, and then extracted with chloroform to remove the proteins. The water layer was analyzed by reverse-phase HPLC using an ion-pair reagent. The analytical conditions were: column, C18 reverse-phase column (COSMOSIL 5C18-AR—II, 250×4.6 mm, Nacalai Tesque, Kyoto, Japan); column temperature, 30° C.; detection, 210 nm; and flow rate, 1 mL/minute. Two different mobile phases were used, one of 0.1% heptafluorobutyric acid+18% acetonitrile (ST-F reaction) and one of 0.1% heptafluorobutyric acid+23% acetonitrile (ST-D reaction). The kinetic assays were performed under conditions similar to those described previously except that the enzyme concentrations (2 μg/mL) and reaction times (5 minutes) were reduced to make them compatible with measurement of steady-state kinetic parameters. All tests were carried out under linear conditions. The reactions were terminated by addition of 15 μl 2N HCl, and then analyzed by HPLC. The kinetic constants were estimated using a Lineweaver-Burk plot. The native molecular weight of the rSttH was estimated by gel filtration using a COSMOSIL 5Diol-300 (7.8 mm×600 mm) column (Nacalai Tesque) which had been equilibrated with 20 mM sodium phosphate buffer (pH 7.0) containing 100 mM sodium sulfate.
(§3) The optimal pH was measured in several buffers (100 mM) with differing pH values: sodium phosphate (NaPB), pH 4.5 to 7; Tris-HCl, pH 7 to 10. Activity peaked at a pH of 6.5 and declined rapidly with decreasing pH (around 4). The effect of temperature on enzymatic activity was also investigated within the range of 25° C. to 75° C. using 100 mM NaPB buffer (pH 6.5). Although enzymatic activity was greatest at 45° C., approximately 90% of maximum activity was also detected at 65° C.

[9] = target: T2, rSttH (Streptomyces noursei, UniProt Q1MW86); assay: as above; assay type: biochemical, Streptomyces albulus NBRC14147; conditions: for Vmax: substrate of rSttH, 30° C., 100 mM NaPB (pH 6.5), U = ST-acid production per minute (μmol)
T2 construct: purified rSttH from E. coli M15 (pREP4) carrying pQE30-SHF6R; 6xHis (N); made in house; host or cells: E. coli M15 (pREP4) carrying pQE30-SHF6R
Method: as §2, §3

[10] = test system: S. cerevisiae CKY8; assay: MIC of ST-F and ST-D in S. cerevisiae CKY8 overexpressing sttH or nat gene; assay type: cell-based, Saccharomyces cerevisiae; conditions: SC medium, 2 days at 30° C.
Method: After sequence confirmation, the amplified fragments were inserted into the same sites in pAD4 to prepare pAD4-nat and pAD4-sttH, in which these genes were expressed under the control of the constitutive promoter of yeast alcohol dehydrogenase. S. cerevisiae CKY8 strain carrying pAD4-nat and pAD4-sttH was grown in SC-Leu medium containing ST (ST-F or ST-D, 0 to 4 mM), and the MICs of ST-F and ST-D were determined.
as §1

[11] = test system: bacteria, fungi and plants; conditions: chemically synthesized from ST-F; reports of Inamori and Taniyama; cited from earlier work
[12] = test system: gram-positive and -negative bacteria, clinically isolated pathogenic bacteria and yeasts; assay type: cell-based
[13] = Enzymatic properties of rSttH (effect of pH and temperature); assay type: biochemical
Method: as §3

[14] = Heart Infusion Broth, 1 day at 37° C.

Row | Molecule | Minimum inhibitory concentration (MIC) [1] [µM] | ratio of MICs of ST-acid and parent ST (c/a or d/b) [1] | Minimum inhibitory concentration (MIC) [2] [µM] | ratio of MICs of ST-acid and parent ST (c/a or d/b) [2] | Minimum inhibitory concentration (MIC) [3] | Minimum inhibitory concentration (MIC) [4] [µM] | ratio of MICs of ST-acid and parent ST (c/a or d/b) [4] | Minimum inhibitory concentration (MIC) [5] | Minimum inhibitory concentration (MIC) [6] [µM] | ratio of MICs of ST-acid and parent ST (c/a or d/b) [6] | Minimum inhibitory concentration (MIC) ([7]; XL1-Blue MRF' + pQE30-SHF6R) [µM] | Minimum inhibitory concentration (MIC) ([7]; XL1-Blue MRF' + pQE30-nat) [µM] | Minimum inhibitory concentration (MIC) ([7]; XL1-Blue MRF' + pQE30) [µM] | Minimum inhibitory concentration (MIC) [3, 14] [mM] | Km [8] [µM] | Vmax [9] [U/mg] | Minimum inhibitory concentration (MIC) [5, 14] [mM] | Minimum inhibitory concentration (MIC) ([10]; CKY8 + pAD4-nat) [µM] | Minimum inhibitory concentration (MIC) ([10]; CKY8 + pAD4-sttH) [µM] | Minimum inhibitory concentration (MIC) ([10]; CKY8 + pAD4) [µM] | also measured
1 | lactam ring-opened streptothricin D derivative [ST-D-acid] | 125 | 31.3 | 1000 | 125 | 0.06 (15) mM | 1000 | 250 | 0.06 (15) mM | 250 | 31.3 | – | – | – | – | – | – | – | – | – | – | antimicrobial activity [3]: particularly strong antimicrobial activity; antimicrobial activity [5]: particularly strong antimicrobial activity
2 | NCCC[C@H](N)CC(=O)N[C@@H]1[C@H](O)[C@@H](OC(N)=O)[C@@H](CO)O[C@H]1NC1=N[C@@H]2C(=O)NC[C@@H](O)[C@H]2N1 [ST-F, streptothricin F] | 16 (≈ 8.04 µg/mL) | – | 125 (≈ 62.8 µg/mL) | – | – | 62 (≈ 31.2 µg/mL) | – | – | 30 (≈ 15.1 µg/mL) | – | 250 | 4000 | <30 | 0.016 (≈ 8.04 µg/mL) | 960 ± 190 | 42.26 ± 2.8 | 0.016 (≈ 8.04 µg/mL) | >4000 | >4000 | 500 | Vmax/Km of the reaction with ST-F relative to the reaction with ST-D ([9]; rSttH): 4 fold
3 | NCCCC(N)CC(=O)NC1C(/N=C2/NC(C(=O)O)C(C(O)CN)N2)OC(CO)C(OC(N)=O)C1O (centres unmarked) [ST-F-acid] | 4000 (≈ 2080 µg/mL) | 250 | > 4000 | > 32 | 2 (126) mM | > 4000 | > 64 | 2 (126) mM | 4000 (≈ 2080 µg/mL) | 133 | – | – | – | – | – | – | – | – | – | – | antibiotic activity [11]: did not exhibit antibiotic activity; antimicrobial activity [12]: lost almost all of its antimicrobial activity
4 | NCCC[C@H](N)CC(=O)NCCC[C@H](N)CC(=O)NCCC[C@H](N)CC(=O)N[C@@H]1[C@H](O)[C@@H](OC(N)=O)[C@@H](CO)O[C@H]1NC1=N[C@@H]2C(=O)NC[C@@H](O)[C@H]2N1 [ST-D, streptothricin D] | 4 (≈ 3.04 µg/mL) | – | 8 (≈ 6.07 µg/mL) | – | – | 4 (≈ 3.04 µg/mL) | – | – | 8 (≈ 6.07 µg/mL) | – | <30 | 2000 | <30 | 0.004 (≈ 3.04 µg/mL) | 5740 ± 990 | 68.95 ± 13.9 | 0.004 (≈ 3.04 µg/mL) | >4000 | >4000 | <30 | –
5 | B1 | – | – | – | – | – | – | – | – | – | – | – | – | – | – | – | – | – | – | – | – | optimal pH (activity peak) ([13]; 100 mM buffers: NaPB pH 4.5 to 7, Tris-HCl pH 7 to 10): 6.5; enzymatic activity relative to maximum activity ([13]; at 65° C., 100 mM NaPB (pH 6.5)): approximately 90%; temperature of greatest enzymatic activity ([13]; range 25° C. to 75° C., 100 mM NaPB (pH 6.5)): 45 °C
